{"source": "patent US12152016B2", "about": "“Aryl hydrocarbon receptor modulators and uses thereof” (Beth Israel Deaconess Medical Center, Inc., priority 2018, dated 2024)", "key": {"[1]": {"system": "AHR-dependent transcription of the CYP1A1 gene", "assay": "CYP1A1 induction in mouse macrophages", "assay_type": "cell-based", "description": "Mouse macrophages were also used to test AHR-dependent transcription of the CYP1A1 gene in vivo. Finally, the activity of exemplary compounds of Formula (I) described herein was tested in the human […] cell line U937. The U937 cell line is derived from a patient with diffuse histiocytic lymphoma. Tables 2-4 summarize structure-activity relationship data collected for exemplary, non-limiting compounds of Formula (I) described herein."}, "DSS induced colitis": {"system": "DSS induced colitis", "assay": "DSS induced colitis in mice", "assay_type": "in vivo, C57BL/6 mice", "description": "C57BL/6 (8-10 week, male) mice were administered drinking water supplemented with 3% (wt/vol) dextran sodium sulfate (DSS; MP Biomedicals) for 7 days followed by a 13 day recovery period with unsupplemented drinking water. Compound 109 or compound 108 were suspended in vehicle (1% HPMC and 1% polysorbate 80 in water) and given daily by oral gavage (1 ug/mouse in 100 uL), starting at day 0. Control mice were administered 100 μL vehicle. Body weight and disease activity index (DAI) were recorded daily. DAI was determined by combining scores of weight loss, stool consistency, blood in stool, activity, and appearance.^1 Scores were determined as follows: change in weight (0: <1%, 1: 1-10%, 2: 10-18%, 3: 18-20%); stool consistency (0: normal, 1: loose stools, 2: diarrhea); stool blood (0: negative, 1: trace blood, 2: bloody stool, 3: gross bleeding), activity (0: normal, 1: low activity, 2: hiding, 3: no response to gentle stimuli) and appearance (0: normal, 1: rigor, 2: hunched posture). On day 7 and day 11, mice were euthanized and colon were removed for length measurement, histology, RNA isolation, and lamina propria mononuclear cell (LPMC) extraction as detailed below.\nDissected colon were cut longitudinally and rolled using the Swiss roll method with the distal side in the center.^2,3 Colons were fixed overnight in 10% neutral buffered formalin, processed for paraffin embedding and sectioned at 5 μm thickness. To visualize and quantify the inflammatory response and crypt loss, hematoxylin and eosin staining (H&E) was performed. Briefly, sections were cleared with xylene, rehydrated through alcohol gradient, stained by hematoxylin, washed by acid and ammonium alcohol, rinsed in water and exposed to Eosin followed by dehydrating through graded alcohols and cleared in xylene. All sections were mounted using Permount (Fisher Scientific) and visualized using a BX41 microscope (Olympus). For histological scoring, 3 transverse sections of Swiss roll were chosen and 9 (100×) images were captured for each section. Images were analyzed for inflammation and crypt structure and scored by a blind observer as follows: inflammation (0: rare inflammatory cells in the lamina propria; 1: increased numbers of inflammatory cells in the lamina propria; 2: confluence of inflammatory cells extending in to the submucosa; 3: transmural extension of the inflammatory infiltrate.); crypt loss (0: none; 1: basal 1/3 damaged; 2: basal 2/3 damaged; 3: only surface epithelium intact; 4: entire crypt and epithelium lost). Inflammation and crypt loss were scored separately and multiplied by a factor of 1-4 to adjust for impacted area of tissue section (1: 0-25%; 2: 25.1-50% affected; 3: 50.1-75% affected; 4: >75% affected).^1,4 To examine goblet cell number, sections were stained by a commercial periodic acid-Schiff (PAS) and Alcian blue kit (Fisher Scientific). For quantification, 3 transverse sections of Swiss roll were chosen per colon and 5 random images at 200x were taken per section in the distal region of the colon. Goblet cell number was counted per image and normalized to colon length by a blind observer using image J.^5\nColonic epithelium and lamina propria cells were isolated as previously described.^6,7 Briefly, colons were dissected and washed with HBSS to remove fecal contents. Colon were opened longitudinally and cut into 2 cm segments. […]"}, "[2]": {"target": "T1, aryl hydrocarbon receptor (AHR) (Homo sapiens, UniProt P35869)", "T1 sequence (P35869 11-848)": "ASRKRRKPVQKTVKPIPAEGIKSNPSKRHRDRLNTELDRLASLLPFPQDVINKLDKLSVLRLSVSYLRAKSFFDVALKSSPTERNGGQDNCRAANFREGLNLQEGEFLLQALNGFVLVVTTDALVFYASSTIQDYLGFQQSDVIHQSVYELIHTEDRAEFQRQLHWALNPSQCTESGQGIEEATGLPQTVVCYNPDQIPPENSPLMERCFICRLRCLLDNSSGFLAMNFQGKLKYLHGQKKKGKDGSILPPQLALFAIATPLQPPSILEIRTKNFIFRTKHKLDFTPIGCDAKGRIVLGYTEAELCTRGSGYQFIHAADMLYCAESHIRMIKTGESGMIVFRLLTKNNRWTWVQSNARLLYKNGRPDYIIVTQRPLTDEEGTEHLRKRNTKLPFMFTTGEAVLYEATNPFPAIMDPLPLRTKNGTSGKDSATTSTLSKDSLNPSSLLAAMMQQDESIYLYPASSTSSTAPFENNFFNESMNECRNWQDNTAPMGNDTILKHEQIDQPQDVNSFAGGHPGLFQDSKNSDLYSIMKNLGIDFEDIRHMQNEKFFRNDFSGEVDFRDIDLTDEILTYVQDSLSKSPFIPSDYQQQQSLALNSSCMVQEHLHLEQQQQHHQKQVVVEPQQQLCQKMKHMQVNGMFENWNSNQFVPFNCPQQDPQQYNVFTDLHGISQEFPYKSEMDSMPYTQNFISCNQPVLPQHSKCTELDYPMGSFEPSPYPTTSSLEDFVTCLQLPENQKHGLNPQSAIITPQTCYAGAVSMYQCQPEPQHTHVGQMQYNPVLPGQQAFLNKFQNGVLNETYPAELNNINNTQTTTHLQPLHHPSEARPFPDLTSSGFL", "assay": "XRE-driven luciferase reporter assay, human HepG2", "method": "The Human HepG2 cell line is a human liver cancer cell line, and provide a relevant in vitro AHR activity model. These Hep2G cells have been modified to stably express an AHR-responsive (XRE) firefly luciferase reporter gene to give Hep2G-XRE cells. The expression of luciferase should primarily reflect AHR-dependent transcription controlled by XRE.\nTransfected cells were treated with AhR agonist (10^−5-10^−12) for 4.5 h in full medium. Cells were lysed and luciferase was activated using the Luciferase Assay System (Promega). Luminescence signals were measured with a FluroStar Omega microplate reader. Luminescence signals of compound treated groups were normalized to vehicle (DMSO) treated control and plotted as concentration dependent fold changes."}}}
{"smiles": "N#Cc1cccc(C(=O)c2c[nH]c3ccccc23)n1", "note": "[Compound 108, 6-(1H-indole-3-carbonyl)pyridine-2-carbonitrile]", "values": [{"measurement": "CYP1A1 induction (% of ITE ± SEM)", "setting": "[1]; 50 nM", "value": "33 ± 3 % of ITE"}, {"measurement": "CYP1A1 induction (% of ITE ± SEM)", "setting": "[1]; 5 μM", "value": "94 ± 24 % of ITE"}, {"measurement": "DSS induced colitis, overall effect", "setting": "DSS induced colitis; 3% DSS 7 days + 13 days recovery, 1 μg daily by oral gavage", "value": "attenuates DSS induced colitis"}, {"measurement": "overall disease score", "setting": "DSS induced colitis; 3% DSS, 1 μg/day PO", "value": "improved the overall disease score"}, {"measurement": "survival", "setting": "DSS induced colitis; 3% DSS, 1 μg/day PO", "value": "significantly improved survival"}, {"measurement": "weight loss", "setting": "DSS induced colitis; 3% DSS, 1 μg/day PO", "value": "reduced weight loss"}, {"measurement": "XRE luciferase Emax (fold)", "setting": "[2]; Human HepG2, fold over vehicle", "value": 74, "unit": "fold"}, {"measurement": "EC50", "setting": "[2]; XRE luciferase EC50, Human HepG2, least square curve fitting, >10,000 = does not reach 50% of Emax of ITE at 10 μM (highest concentration tested)", "value": 2.8, "unit": "nM"}]}
